What all share (type): functional, cell-based
One test concerns MCF7. Description: Cytotoxicity against human MCF7 cells by MTT assay. (In general: Formazan colour is commonly taken as a measure of viable cells.)
The next test has as its system KB. Description: Cytotoxicity against human KB cells by MTT assay.
For the next test, the system named is A549. Put plainly: Cytotoxicity against human A549 cells by MTT assay.

Drawing on ChEMBL document CHEMBL1141753, “Cytotoxic diterpenoids from the soft coral Sinularia microclavata” (J Nat Prod, 2005), this text covers IC50 for two molecules.

In brackets after ≈: the same amount, converted by molar mass.

Usually IC50 stands for the concentration that inhibits the measured activity by half. Lower therefore signals inhibition by little substance. On to `C/C1=C\[C@@H]2[C@H](CC[C@H](C)CC(=O)[C@@H]3O[C@]3(C)/C=C/C1=O)C2(C)C` [MICROCLAVATIN], for which the values for the IC50 with MCF7 and in the test with KB were 20 µg/mL (≈ 63.2 µM) and 5 µg/mL (≈ 15.8 µM), respectively.

In the case of `C=C1C(=O)O[C@]2(C)CC[C@@H]1C[C@@H](O)[C@@](C)(O)CC/C=C(\C)CC[C@@H]2O` [CAPILLOLIDE], the IC50 with A549 turned out to be 0.5 µg/mL (≈ 1.42 µM).
